These results are taken from paper PMC11594329, “Development of LAT1-Selective Nuclear Medicine Therapeutics Using Astatine-211” (International Journal of Molecular Sciences, 2024).

“Also recorded” adds a separate entry of the source.

The test system of one series is PANC-1 cells. The experiment in a line: Uptake in PANC-1 cell line. Format: cell-based. The note with it: for Uptake of optical isomers: %ID/mg protein. How it is done:
Each cell line was seeded in 24 wells at 1 × 10^5 cells/mL and allowed to become sub-confluent on the day of the experiment. Cells were washed with PBS (-) (Fujifilm Wako Pure Chemical, Osaka, Japan) prior to the addition of the compound, which was then replaced with uptake buffer. After treating the cells with the same dose, they were collected at predetermined time points. The cell dose was measured using a γ-counter (Wizard^2 2480; PerkinElmer, Waltham, MA, USA), and the protein content of the sample was determined. Protein content was measured using the BCA method, and the dose was corrected using the protein content (Protein Assay BCA kit, Fujifilm Wako Pure Chemical).
Figure 2 Comparison of uptake between the labeled compounds. (A) Relation between uptake ratio and LAT1 expression level. Uptake ratios were compared between LAT1-Tet/HEK293 cells. The Y-axis represents the uptake ratio, and the X-axis is concentration of Doxycycline (Dox) (TaKaRa Bio, Shiga, Japan). The collection time was 30 min after treatment. The expression of LAT1 increased with increasing amounts of Dox. (B) Comparison of uptake in PANC-1 cell line. The collection times were 0.5, 1, 5 and 10 min after treatment.
Figure 3 Comparison of intracellular uptake of […]-AAMT-O-Me L-isomer and ^211At-AAMT-O-Me D-isomer of ^211At-AAMT-O-Me. (A) Uptake in Mock/HEK293, LAT1/HEK293, and […] lines. (B) Uptake in PANC-1 cells. The y-axis represents %ID/mg protein. BCH: -Amino-2-norbornanecarboxylic acid. BCH was treated at 20 mM. ** p < 0.01, *** p < 0.001.
The PANC-1 cell line was obtained from the RIKEN Cell Bank and maintained in RPMI 1640 medium (Fujifilm Wako Pure Chemical, Osaka, Japan) supplemented with 10% inactivated fetal bovine serum (Thermo Fisher Scientific, Waltham, MA, USA). Mock/HEK293, LAT1/HEK293, and LAT2/HEK203 cells were kindly provided by Dr. Kanai. Cell lines controlling LAT1 expression were constructed using the Tet-on system. […]

Series [1] can be described thus: Urinary and fecal excretion in PANC-1 tumor bearing mice. Format: in vivo. As to the method: Urinary excretion levels were also examined (Supplementary Table S1). Comparing the D-isomer and L isomer of ^211At-AAMT-O-Me from ICR mice, the D-isomer; 24.84 ± 13.03% ID, L-isomer; 33.69 ± 1.26% ID at 1 h after injection. D-isomer; 71.36 ± 4.67% ID, L-isomer; 23.99 ± 2.40% ID at 3 h after injection. From PANC-1 tumor bearing mice, D-isomer; 35.24 ± 8.70% ID, L-isomer; 20.40 ± 0.76% ID at 1 h after injection. D-isomer; 47.38 ± 3.19% ID, L-isomer; 3.23 ± 0.67% ID at 3 h after injection. In tumor-bearing models, the amount of excretion was smaller than that in normal mice. We have already reported that, in the presence of target cancer tissue for administered drugs, retention in the cancer tissue results in reduced excretion compared with normal animals. […] The same was also observed for feces, but very little was excreted in the feces. The results were as follows: from ICR mice, D-isomer; 0.06 ± 0.03% ID, L-isomer; 0.004 ± 0.003% ID at 1 h after injection. D-isomer; 0.02 ± 0.01% ID, L-isomer; 0.02 ± 0.01% ID at 3 h after injection. From PANC-1 tumor bearing mice, D-isomer; 0.25 ± 0.12% ID, L-isomer; 0.002 ± 0.001% ID at 1 h after injection. D-isomer; 0.75 ± 0.46% ID; L-isomer; 0.07 ± 0.03% ID at 3 h after injection.
BALB/c nu/nu mice (male, 5 weeks old) were purchased from Japan SLC (Shizuoka, Japan) and subcutaneously transplanted at a density of 1 × 10^7 cells/mouse. PANC-1 cells that reached the logarithmic growth phase were transplanted subcutaneously by mixing a 1 × 10^8 cells/mL cell suspension with an equivalent volume of Matrigel (Corning, Corning, NY, USA) to obtain 1 × 10^7 cells per mouse. Experiments were performed after the size of the transplanted tumor had exceeded 50 mm^3. The doses in the distribution experiments were as follows: ^211At-AAMT-OH-L (0.501 ± 0.011 MBq/mouse, 19.91 ± 0.59 g, n = 3) and ^211At-AAMT-O-Me-L (0.384 ± 0.003 MBq/mouse, 19.18 ± 0.38 g, n = 6 for Table 3), ^211At-AAMT-O-Me-L (158.10 ± 2.94 kBq/mouse, 19.27 ± 0.64 g, n = 6) and ^211At-AAMT-O-Me-D (135.08 ± 2.35 kBq/mouse, 18.64 ± 0.97 g, n = 6), ^211At-AAMT-O-Et-L (0.682 ± 0.011 MBq/mouse, 20.25 ± 1.41 g, n = 6), ^211At-AAMT-O-Pr-L (0.927 ± 0.020 MBq/mouse, 21.74 ± 0.37 g, n = 6).

For the compound `COc1ccc(C[C@@](C)(N)C(=O)O)cc1[211At]` [^211At-AAMT-O-Me-D], the “Uptake of optical isomers” value with PANC-1 cells is on record as “taken up less”. In series [1] (1 h after injection), the Excretion in feces was 0.25 ± 0.12 % ID and the Urinary excretion stood at 35.24 ± 8.70 % ID. In series [1] (3 h after injection), this compound had an Excretion in feces of 0.75 ± 0.46 % ID and a Urinary excretion of 47.38 ± 3.19 % ID.

`COc1ccc(C[C@](C)(N)C(=O)O)cc1[211At]` [^211At-AAMT-O-Me-L, (S)-2-amino-3-(3-(astato-^211At)-4-methoxyphenyl)-2-methylpropanic acid]: in the series on PANC-1 cells, the “Uptake of optical isomers” value was “taken up more”. Also, the Time-dependent uptake result with PANC-1 cells (collection 0.5, 1, 5 and 10 min after treatment) is recorded as “highest uptake; also recorded: significantly higher uptake than the seed compound”. Besides, the Excretion in feces in series [1] (1 h after injection) is on record as 0.002 ± 0.001 % ID; in series [1] (3 h after injection), 0.07 ± 0.03 % ID. The Urinary excretion in series [1] (1 h after injection) was 20.40 ± 0.76 % ID; in series [1] (3 h after injection), 3.23 ± 0.67 % ID.
